PMC7013532, “Scenarios of Genes-to-Terpenoids Network Led to the Identification of a Novel α/β-Farnesene/β-Ocimene Synthase in Camellia sinensis” (International Journal of Molecular Sciences, 2020)

Target: TPS2 (Camellia sinensis, UniProt A0A3G3IRF8)
Experiment: SPME GC-MS product analysis
Format: biochemical
Conditions: pH 7.5, 50 mM Tris-HCl, 10 mM MgCl2, 5 mM DTT, 30 °C

TPS2, sequence (A0A3G3IRF8 entry or part of it): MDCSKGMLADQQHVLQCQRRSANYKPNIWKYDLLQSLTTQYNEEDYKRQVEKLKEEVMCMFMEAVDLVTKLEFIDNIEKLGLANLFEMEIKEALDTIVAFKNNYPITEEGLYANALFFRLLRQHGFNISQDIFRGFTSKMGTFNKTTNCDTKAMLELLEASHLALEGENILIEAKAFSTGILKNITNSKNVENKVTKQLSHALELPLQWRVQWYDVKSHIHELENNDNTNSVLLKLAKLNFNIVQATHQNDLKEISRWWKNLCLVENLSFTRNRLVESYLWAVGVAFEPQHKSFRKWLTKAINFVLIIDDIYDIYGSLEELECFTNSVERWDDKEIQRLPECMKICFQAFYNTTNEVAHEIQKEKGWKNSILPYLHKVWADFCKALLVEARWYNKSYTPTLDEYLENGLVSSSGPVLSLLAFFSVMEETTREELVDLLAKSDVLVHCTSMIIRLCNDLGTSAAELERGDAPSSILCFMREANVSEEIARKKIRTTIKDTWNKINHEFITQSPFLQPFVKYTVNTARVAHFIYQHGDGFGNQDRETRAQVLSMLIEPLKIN

Row | SMILES | SPME GC-MS product analysis (products beta-farnesene (main) and alpha-farnesene) | SPME GC-MS product analysis (product beta-ocimene)
1 | CC(C)=CCC/C(C)=C/CC/C(C)=C/COP(=O)(O)OP(=O)(O)O [FPP] | The main product produced by TPS2 using FPP as a substrate was β-farnesene | –
2 | CC(C)=CCC/C(C)=C/COP(=O)(O)OP(=O)(O)O [GPP] | – | β-ocimene is the resulting product when using GPP is used as the substrate
